System: HCV 1b-Con1 replicon
Assay: HCV 1b-Con1 replicon assay in the presence of 5% FBS
Assay type: cell-based
Details: Hepatitis C virus

Question: How did the EC50 turn out when `COC(=O)N[C@H](C(=O)N1CCC[C@H]1c1nc2cc([C@H]3CC[C@@H](c4cc5nc([C@@H]6CCCN6C(=O)[C@@H](NC(=O)OC)C(C)C)[nH]c5cc4F)N3c3cc(F)c(N4CCCCC4)c(F)c3)c(F)cc2[nH]1)C(C)C` [Example 4.52, methyl {(2S)-1-[(2S)-2-{5-[(2S,5R)-1-[3,5-difluoro-4-(piperidin-1-yl)phenyl]-5-{6-fluoro-2-[(2S)-1-{(2S)-2-[(methoxycarbonyl)amino]-3-methylbutanoyl}pyrrolidin-2-yl]-1H-benzimidazol-5-yl}pyrrolidin-2-yl]-6-fluoro-1H-benzimidazol-2-yl}pyrrolidin-1-yl]-3-methyl-1-oxobutan-2-yl}carbamate] was run?
Answer: < 0.1 nM

Question: With `COC(=O)N[C@H](C(=O)N1CCC[C@H]1c1nc(-c2ccc(-c3ccn(-c4ccc(-c5c[nH]c([C@@H]6CCCN6C(=O)[C@@H](NC(=O)OC)C(C)C)n5)cc4)c3-c3ccc(C(C)(C)C)cc3)cc2)c[nH]1)C(C)C` [Example 7.1, methyl {(2S)-1-[(2S)-2-(4-{4-[2-(4-tert-butylphenyl)-1-(4-{2-[(2S)-1-{(2S)-2-[(methoxycarbonyl)amino]-3-methylbutanoyl}pyrrolidin-2-yl]-1H-imidazol-4-yl}phenyl)-1H-pyrrol-3-yl]phenyl}-1H-imidazol-2-yl)pyrrolidin-1-yl]-3-methyl-1-oxobutan-2-yl}carbamate] as the compound, how does the EC50 read?
Answer: < 0.1 nM

Question: `COC(=O)N[C@H](C(=O)N1[C@H](c2nc3cc([C@H]4CC[C@H](c5ccc6[nH]c([C@@H]7C[C@@H]8CCC[C@@H]8N7C(=O)[C@@H](NC(=O)OC)C7CCCC7)nc6c5)N4c4cc(F)c(N5CCCCC5)c(F)c4)ccc3[nH]2)C[C@@H]2CCC[C@@H]21)C1CCCC1` [Example 3.30, dimethyl ({(2R,5R)-1-[3,5-difluoro-4-(piperidin-1-yl)phenyl]pyrrolidine-2,5-diyl}bis{1H-benzimidazole-5,2-diyl(2S,3aS,6aS)hexahydrocyclopenta[b]pyrrole-2,1(2H)-diyl[(1S)-1-cyclopentyl-2-oxoethane-2,1-diyl]})biscarbamate] was tested. Which EC50 did it give?
Answer: < 0.1 nM

Question: `COC(=O)N[C@H](C(=O)N1CCC[C@H]1c1nc2cc([C@H]3CC[C@H](c4ccc5[nH]c([C@@H]6CCCN6C(=O)[C@@H](NC(=O)OC)C(C)C)nc5c4)N3c3ccc(Cl)c(F)c3)ccc2[nH]1)C(C)C` [Example 2.2, methyl {(2S)-1-[(2S)-2-{5-[(2R,5R)-1-(4-chloro-3-fluorophenyl)-5-{2-[(2S)-1-{(2S)-2-[(methoxycarbonyl)amino]-3-methylbutanoyl}pyrrolidin-2-yl]-1H-benzimidazol-5-yl}pyrrolidin-2-yl]-1H-benzimidazol-2-yl}pyrrolidin-1-yl]-3-methyl-1-oxobutan-2-yl}carbamate] was tested. Which EC50 did it give?
Answer: < 0.1 nM

Question: `COC(=O)N[C@H](C(=O)N1CCC[C@H]1c1nc2cc([C@H]3CC[C@H](c4cc5nc([C@@H]6CCCN6C(=O)[C@@H](NC(=O)OC)[C@@H](C)OC(C)(C)C)[nH]c5cc4F)N3c3cc(F)c(N4CCC(C(C)(C)C)CC4)c(F)c3)c(F)cc2[nH]1)[C@@H](C)OC(C)(C)C` [Example 4.29, methyl {(2S,3R)-3-tert-butoxy-1-[(2S)-2-(5-{(2R,5R)-5-{2-[(2S)-1-{(2S,3R)-3-tert-butoxy-2-[(methoxycarbonyl)amino]butanoyl}pyrrolidin-2-yl]-6-fluoro-1H-benzimidazol-5-yl}-1-[4-(4-tert-butylpiperidin-1-yl)-3,5-difluorophenyl]pyrrolidin-2-yl}-6-fluoro-1H-benzimidazol-2-yl)pyrrolidin-1-yl]-1-oxobutan-2-yl}carbamate] was tested. Which EC50 did it give?
Answer: < 0.1 nM

Question: With `COC(=O)N[C@H](C(=O)N1CCC[C@H]1c1nc2cc([C@H]3CC[C@H](c4ccc5[nH]c([C@@H]6CCCN6C(=O)[C@@H](NC(=O)OC)[C@@H](C)OC)nc5c4)N3c3cc(F)c(N4CCC(c5ccccc5)CC4)c(F)c3)ccc2[nH]1)[C@@H](C)OC` [Example 5.3, methyl {(2S,3R)-1-[(2S)-2-{5-[(2R,5R)-1-[3,5-difluoro-4-(4-phenylpiperidin-1-yl)phenyl]-5-(2-{(2S)-1-[N-(methoxycarbonyl)-O-methyl-L-threonyl]pyrrolidin-2-yl}-1H-benzimidazol-5-yl)pyrrolidin-2-yl]-1H-benzimidazol-2-yl}pyrrolidin-1-yl]-3-methoxy-1-oxobutan-2-yl}carbamate] as the compound, how does the EC50 read?
Answer: < 0.1 nM

Question: For `COC(=O)N[C@H](C(=O)N1CCC[C@H]1c1nc2cc([C@H]3CC[C@H](c4ccc5[nH]c([C@@H]6CCCN6C(=O)[C@@H](NC(=O)OC)C(C)C)nc5c4)N3c3cc(F)c(N4CC5CCC4CC5)c(F)c3)ccc2[nH]1)C(C)C` [Example 4.21, methyl {(2S)-1-[(2S)-2-{5-[(2R,5R)-1-[4-(2-azabicyclo[2.2.2]oct-2-yl)-3,5-difluorophenyl]-5-{2-[(2S)-1-{(2S)-2-[(methoxycarbonyl)amino]-3-methylbutanoyl}pyrrolidin-2-yl]-1H-benzimidazol-5-yl}pyrrolidin-2-yl]-1H-benzimidazol-2-yl}pyrrolidin-1-yl]-3-methyl-1-oxobutan-2-yl}carbamate], which EC50 is on record?
Answer: < 0.1 nM

Question: For `COC(=O)N[C@H](C(=O)N1[C@H](c2nc3cc([C@H]4CC[C@H](c5ccc6[nH]c([C@@H]7C[C@@H]8CCC[C@@H]8N7C(=O)[C@@H](NC(=O)OC)C7CCOCC7)nc6c5)N4c4cc(F)c(N5CCCCC5)c(F)c4)ccc3[nH]2)C[C@@H]2CCC[C@@H]21)C1CCOCC1` [Example 3.32, dimethyl ({(2R,5R)-1-[3,5-difluoro-4-(piperidin-1-yl)phenyl]pyrrolidine-2,5-diyl}bis{1H-benzimidazole-5,2-diyl(2S,3aS,6aS)hexahydrocyclopenta[b]pyrrole-2,1(2H)-diyl[(1S)-2-oxo-1-(tetrahydro-2H-pyran-4-yl)ethane-2,1-diyl]})biscarbamate], which EC50 is on record?
Answer: < 0.1 nM

Question: With `COC(=O)N[C@H](C(=O)N1CCC[C@H]1c1nc2cc(F)c([C@H]3CC[C@H](c4cc5[nH]c([C@@H]6CCCN6C(=O)[C@@H](NC(=O)OC)C(C)C)nc5cc4F)N3c3cc(F)c(N4CCC(Cc5ccccc5)CC4)c(F)c3)cc2[nH]1)C(C)C` [Example 4.44, methyl {(2S)-1-[(2S)-2-{6-[(2R,5R)-1-[4-(4-benzylpiperidin-1-yl)-3,5-difluorophenyl]-5-{5-fluoro-2-[(2S)-1-{(2S)-2-[(methoxycarbonyl)amino]-3-methylbutanoyl}pyrrolidin-2-yl]-1H-benzimidazol-6-yl}pyrrolidin-2-yl]-5-fluoro-1H-benzimidazol-2-yl}pyrrolidin-1-yl]-3-methyl-1-oxobutan-2-yl}carbamate] as the compound, how does the EC50 read?
Answer: < 0.1 nM

Question: How did the EC50 turn out when `COC(=O)N[C@H](C(=O)N1CCC[C@H]1c1nc2cc([C@H]3CC[C@H](c4ccc5[nH]c([C@@H]6CCCN6C(=O)[C@@H](NC(=O)OC)C(C)C)nc5c4)N3c3cc(F)c(N4C[C@H]5CC[C@H]5C4)c(F)c3)ccc2[nH]1)C(C)C` [Example 1.8, methyl {(2S)-1-[(2S)-2-{5-[(2R,5R)-1-{4-[(1R,5S)-3-azabicyclo[3.2.0]hept-3-yl]-3,5-difluorophenyl}-5-{2-[(2S)-1-{(2S)-2-[(methoxycarbonyl)amino]-3-methylbutanoyl}pyrrolidin-2-yl]-1H-benzimidazol-5-yl}pyrrolidin-2-yl]-1H-benzimidazol-2-yl}pyrrolidin-1-yl]-3-methyl-1-oxobutan-2-yl}carbamate] was run?
Answer: < 0.1 nM

Question: For `COC(=O)N[C@H](C(=O)N1CCC[C@H]1c1nc2cc([C@H]3CC[C@H](c4cc5nc([C@@H]6CCCN6C(=O)[C@@H](NC(=O)OC)C(C)C)[nH]c5cc4F)N3c3cc(F)c(N4CCC5(CCc6ccccc65)CC4)c(F)c3)c(F)cc2[nH]1)C(C)C` [Example 4.31, methyl {(2S)-1-[(2S)-2-{5-[(2R,5R)-1-[4-(2,3-dihydro-1′H-spiro[indene-1,4′-piperidin]-1′-yl)-3,5-difluorophenyl]-5-{6-fluoro-2-[(2S)-1-{(2S)-2-[(methoxycarbonyl)amino]-3-methylbutanoyl}pyrrolidin-2-yl]-1H-benzimidazol-5-yl}pyrrolidin-2-yl]-6-fluoro-1H-benzimidazol-2-yl}pyrrolidin-1-yl]-3-methyl-1-oxobutan-2-yl}carbamate], which EC50 is on record?
Answer: < 0.1 nM

Question: Which EC50 does the source give for `COC(=O)N[C@H](C(=O)N1CCC[C@H]1c1nc2ccc([C@H]3CC[C@H](c4ccc5nc([C@@H]6CCCN6C(=O)[C@@H](NC(=O)OC)C(C)C)[nH]c5c4)N3c3cc(F)c(N4CCC(c5cccc6ccccc56)CC4)c(F)c3)cc2[nH]1)C(C)C` [Example 2.15, methyl {(2S)-1-[(2S)-2-{5-[(2R,5R)-1-{3,5-difluoro-4-[4-(1-naphthyl)piperidin-1-yl]phenyl}-5-{2-[(2S)-1-{(2S)-2-[(methoxycarbonyl)amino]-3-methylbutanoyl}pyrrolidin-2-yl]-1H-benzimidazol-5-yl}pyrrolidin-2-yl]-1H-benzimidazol-2-yl}pyrrolidin-1-yl]-3-methyl-1-oxobutan-2-yl}carbamate] here?
Answer: < 0.1 nM

Question: For `COC(=O)N[C@H](C(=O)N1C2CCC(C2)[C@H]1c1nc2cc([C@H]3CC[C@H](c4ccc5[nH]c([C@@H]6C7CCC(C7)N6C(=O)[C@@H](NC(=O)OC)C(C)C)nc5c4)N3c3cc(F)c(N4CCCCC4)c(F)c3)ccc2[nH]1)C(C)C` [Example 3.19, methyl {(2S)-1-[(3S)-3-{5-[(2R,5R)-1-[3,5-difluoro-4-(piperidin-1-yl)phenyl]-5-{2-[(3S)-2-{(2S)-2-[(methoxycarbonyl)amino]-3-methylbutanoyl}-2-azabicyclo[2.2.1]hept-3-yl]-1H-benzimidazol-5-yl}pyrrolidin-2-yl]-1H-benzimidazol-2-yl}-2-azabicyclo[2.2.1]hept-2-yl]-3-methyl-1-oxobutan-2-yl}carbamate], which EC50 is on record?
Answer: < 0.1 nM

Question: With `COC(=O)N[C@H](C(=O)N1C(c2nc3cc([C@H]4CC[C@H](c5ccc6[nH]c([C@@H]7C[C@@H]8CCC[C@@H]8N7C(=O)[C@@H](NC(=O)OC)C(C)C)nc6c5)N4c4cc(F)c(N5CCCCC5)c(F)c4)ccc3[nH]2)C[C@@H]2CCC[C@@H]21)C(C)C` (stereo partly drawn) [Example 4.18, methyl {(2S)-1-[(2S,3aS,6aS)-2-{5-[(2R,5R)-1-[3,5-difluoro-4-(piperidin-1-yl)phenyl]-5-{2-[(3aS,6aS)-1-{(2S)-2-[(methoxycarbonyl)amino]-3-methylbutanoyl}octahydrocyclopenta[b]pyrrol-2-yl]-1H-benzimidazol-5-yl}pyrrolidin-2-yl]-1H-benzimidazol-2-yl}hexahydrocyclopenta[b]pyrrol-1(2H)-yl]-3-methyl-1-oxobutan-2-yl}carbamate] as the compound, how does the EC50 read?
Answer: < 0.1 nM

— patent US20120220562A1, “Anti-Viral Compounds” (ABBOTT LABAORATORIES, priority 2011, published 2012)
